Laboratory results taken from patent US8901313B2, “6,5-heterocyclic propargylic alcohol compounds and uses therefor” (Genentech, Inc., priority 2011, dated 2014).
pKi: −log10 of the molar value.

biological target: T1, nuclear factor-kappa B (NF-kB)-inducing kinase (NIK) (Homo sapiens, UniProt Q99558); assay: NIK Enzyme Inhibition Assay (Transcreener ADP assay); format: biochemical; settings: purified NIK 0.2-1 nM, 10 uM ATP, fluorescence polarization, Morrison's quadratic equation; read-out: inhibitory value (Ki) for NIK
T1 construct: made in house; host or cells: baculovirus-infected insect cells
T1 sequence (Q99558 whole entry): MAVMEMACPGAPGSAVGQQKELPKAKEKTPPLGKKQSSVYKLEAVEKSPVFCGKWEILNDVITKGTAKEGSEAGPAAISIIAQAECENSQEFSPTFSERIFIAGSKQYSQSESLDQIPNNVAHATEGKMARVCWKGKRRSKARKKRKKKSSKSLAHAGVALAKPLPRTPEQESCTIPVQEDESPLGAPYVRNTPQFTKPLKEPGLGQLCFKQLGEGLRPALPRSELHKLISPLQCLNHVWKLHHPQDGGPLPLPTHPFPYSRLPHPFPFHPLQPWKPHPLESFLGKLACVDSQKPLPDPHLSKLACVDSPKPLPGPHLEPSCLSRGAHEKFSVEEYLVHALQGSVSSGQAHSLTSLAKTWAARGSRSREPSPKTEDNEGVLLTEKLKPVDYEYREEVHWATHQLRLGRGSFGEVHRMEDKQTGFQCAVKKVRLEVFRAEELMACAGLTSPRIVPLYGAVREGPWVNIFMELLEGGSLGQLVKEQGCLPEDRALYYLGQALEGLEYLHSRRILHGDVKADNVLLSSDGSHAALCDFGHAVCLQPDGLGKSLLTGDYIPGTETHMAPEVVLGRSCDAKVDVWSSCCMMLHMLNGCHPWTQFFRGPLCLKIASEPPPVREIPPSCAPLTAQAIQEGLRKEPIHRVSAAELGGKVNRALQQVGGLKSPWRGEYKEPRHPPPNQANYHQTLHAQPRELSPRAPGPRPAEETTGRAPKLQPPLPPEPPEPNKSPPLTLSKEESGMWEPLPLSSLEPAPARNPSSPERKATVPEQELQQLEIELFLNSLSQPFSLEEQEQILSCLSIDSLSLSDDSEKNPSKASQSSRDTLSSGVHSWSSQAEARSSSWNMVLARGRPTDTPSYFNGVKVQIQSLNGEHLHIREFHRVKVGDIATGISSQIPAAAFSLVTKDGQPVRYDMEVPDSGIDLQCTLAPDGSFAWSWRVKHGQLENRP

Structure (SMILES)	pKi
Cc1nc2ccc(C#CC3(O)CCCCC3)cc2n1-c1ncnc(N)n1 [Example T1.1-106, 1-[2-[3-(4-amino-1,3,5-triazin-2-yl)-2-methyl-benzimidazol-5-yl]ethynyl]cyclohexanol]	6.11
Cc1nc2ccc(C#CC3(CO)CCCC3)cc2n1-c1ncnc(N)n1 [Example T1.1-107, [1-[2-[3-(4-amino-1,3,5-triazin-2-yl)-2-methyl-benzimidazol-5-yl]ethynyl]cyclopentyl]methanol]	6.04
CC(O)(C#Cc1ccc2nc(OCCO)n(-c3ccnc(N)n3)c2c1)c1ccc(F)cn1 (stereo not drawn) [Example T1.1-108, 4-[3-(2-aminopyrimidin-4-yl)-2-(2-hydroxyethoxy)benzimidazol-5-yl]-2-(5-fluoro-2-pyridyl)but-3-yn-2-ol]	5.80
Cc1nc2ccc(C#CC(O)C3CC(O)C3)cc2n1-c1ncnc(N)n1 (stereo not drawn) [Example T1.1-109, 3-[3-[3-(4-amino-1,3,5-triazin-2-yl)-2-methyl-benzimidazol-5-yl]-1-hydroxy-prop-2-ynyl]cyclobutanol]	5.80
Cc1nc2ccc(C#CC3(O)CC4CCC3C4)cc2n1-c1ncnc(N)n1 (stereo not drawn) [Example T1.1-110, 2-[2-[3-(4-amino-1,3,5-triazin-2-yl)-2-methyl-benzimidazol-5-yl]ethynyl] norbornan-2-ol]	5.77
Cc1nc2ccc(C#CC(C)(O)c3nc(CO)cs3)cc2n1-c1ncnc(N)n1 (stereo not drawn) [Example T1.1-111, 4-[3-(4-amino-1,3,5-triazin-2-yl)-2-methyl-benzimidazol-5-yl]-2-[4-(hydroxy-methyl)thiazol-2-yl]but-3-yn-2-ol]	5.77
Cc1nc2ccc(C#CC(C)(O)c3nc(CC#N)cs3)cc2n1-c1ncnc(N)n1 (stereo not drawn) [Example T1.1-112, 2-[2-[3-[3-(4-amino-1,3,5-triazin-2-yl)-2-methyl-benzimidazol-5-yl]-1-hydroxy-1-methyl-prop-2-ynyl]thiazol-4-yl] acetonitrile]	5.74
Cc1nc2ccc(C#CC3(O)CC(C#N)C3)cc2n1-c1ncnc(N)n1 (stereo not drawn) [Example T1.1-113, 3-[2-[3-(4-amino-1,3,5-triazin-2-yl)-2-methyl-benzimidazol-5-yl]ethynyl]-3-hydroxy-cyclobutanecarbonitrile]	5.62
Cc1nc2ccc(C#CC3(O)CCCOC3)cc2n1-c1ncnc(N)n1 (stereo not drawn) [Example T1.1-114, 3-[2-[3-(4-amino-1,3,5-triazin-2-yl)-2-methyl-benzimidazol-5-yl]ethynyl] tetrahydropyran-3-ol]	5.59
Cc1nc2ccc(C#CC3(O)CC(CO)C3)cc2n1-c1ncnc(N)n1 (stereo not drawn) [Example T1.1-115, 1-[2-[3-(4-amino-1,3,5-triazin-2-yl)-2-methyl-benzimidazol-5-yl]ethynyl]-3-(hydroxymethyl)cyclobutanol]	5.41
Cc1nc2ccc(C#CC3(O)COC3)cc2n1-c1ncnc(N)n1 [Example T1.1-116, 3-[2-[3-(4-amino-1,3,5-triazin-2-yl)-2-methyl-benzimidazol-5-yl]ethynyl] oxetan-3-ol]	≤ 5.30
CN(C)C(=O)c1nn(-c2ccnc(N)n2)c2cc(C#CC3(O)CCn4cncc43)ccc12 (stereo not drawn) [Example T1.1-117, 1-(2-aminopyrimidin-4-yl)-6-[2-(7-hydroxy-5,6-dihydropyrrolo[1,2-c]imidazol-7-yl)ethynyl]-N,N-dimethyl-indazole-3-carboxamide]	≤ 5.30
Cc1nc2ccc(C#CC(C)(C)CO)cc2n1-c1ncnc(N)n1 [Example T1.1-118, 4-[3-(4-amino-1,3,5-triazin-2-yl)-2-methyl-benzimidazol-5-yl]-2,2-dimethyl-but-3-yn-1-ol]	≤ 5.30
CNc1ccnc(-n2ncc3ccc(C#CC(C)(O)c4cc(C)on4)cc32)n1 (stereo not drawn) [Example T1.1-119, 4-[1-[4-(methylamino)pyrimidin-2-yl]indazol-6-yl]-2-(5-methyl-isoxazol-3-yl)but-3-yn-2-ol]	≤ 5.30
Nc1nccc(-n2ncc3c(F)cc(C#CC4(O)CCCC4)cc32)n1 [Example T1.1-120, 1-[2-[1-(2-aminopyrimidin-4-yl)-4-fluoro-indazol-6-yl]ethynyl] cyclopentanol]	≤ 5.30
CC(O)(C#Cc1ccc2c(C(=O)N3CCOCC3)nn(-c3ccnc(N)n3)c2c1)c1ccncn1 (stereo not drawn) [Example T1.1-121, [1-(2-aminopyrimidin-4-yl)-6-(3-hydroxy-3-pyrimidin-4-yl-but-1-ynyl)indazol-3-yl]-morpholino-methanone]	≤ 5.30
CC(O)(C#Cc1ccc2nc(OCCO)n(-c3ccnc(N)n3)c2c1)c1ccc(Cl)cn1 (stereo not drawn) [Example T1.1-123, 4-[3-(2-aminopyrimidin-4-yl)-2-(2-hydroxyethoxy)benzimidazol-5-yl]-2-(5-chloro-2-pyridyl)but-3-yn-2-ol]	≤ 5.30
Cc1nc2ccc(C#CC(C)(O)Cn3cccn3)cc2n1-c1ncnc(N)n1 (stereo not drawn) [Example T1.1-126, 4-[3-(4-amino-1,3,5-triazin-2-yl)-2-methyl-benzimidazol-5-yl]-2-methyl-1-pyrazol-1-yl-but-3-yn-2-ol]	≤ 5.30
CC(O)(C#Cc1ccc2c(C(=O)N3CCOCC3)nn(-c3ccnc(N)n3)c2c1)c1ncccn1 (stereo not drawn) [Example T1.1-130, [1-(2-aminopyrimidin-4-yl)-6-(3-hydroxy-3-pyrimidin-2-yl-but-1-ynyl)indazol-3-yl]-morpholino-methanone]	≤ 5.30

Now those with a higher pKi, led by results:

pKi	Structure (SMILES)
7.00	CC(C)(O)C#Cc1ccc2nc(OC3COC3)n(-c3ccnc(N)n3)c2c1 [Example T1.1-96, 4-[3-(2-aminopyrimidin-4-yl)-2-(oxetan-3-yloxy)benzimidazol-5-yl]-2-methyl-but-3-yn-2-ol]
6.99	Cc1cc(C(C)(O)C#Cc2ccc3nc(OC4CN(CCO)C4)n(-c4ccnc(N)n4)c3c2)no1 (stereo not drawn) [Example T1.1-97, 4-[3-(2-aminopyrimidin-4-yl)-2-[1-(2-hydroxyethyl)azetidin-3-yl]oxy-benzimidazol-5-yl]-2-(5-methyl-isoxazol-3-yl)but-3-yn-2-ol]
6.95	Cc1nn(-c2ccnc(N)n2)c2cc(C#CC(C)(O)c3ncc[nH]3)ccc12 (stereo not drawn) [Example T1.1-98, 4-[1-(2-aminopyrimidin-4-yl)-3-methyl-indazol-6-yl]-2-(1H-imidazol-2-yl)but-3-yn-2-ol]
6.89	Cc1nc2ccc(C#CC(C)(O)CC3CC3)cc2n1-c1ncnc(N)n1 (stereo not drawn) [Example T1.1-99, 4-[3-(4-amino-1,3,5-triazin-2-yl)-2-methyl-benzimidazol-5-yl]-1-cyclopropyl-2-methyl-but-3-yn-2-ol]
6.89	Cc1nc2ccc(C#CC(C)(O)CO)cc2n1-c1ncnc(N)n1 (stereo not drawn) [Example T1.1-100, 4-[3-(4-amino-1,3,5-triazin-2-yl)-2-methyl-benzimidazol-5-yl]-2-methyl-but-3-yne-1,2-diol]
6.82	CNc1nccc(-n2ncc3ccc(C#C[C@@](C)(O)c4cc(C)on4)cc32)n1 [Example T1.1-101, (2R)-4-[1-[2-(methylamino)pyrimidin-4-yl]indazol-6-yl]-2-(5-methylisoxazol-3-yl)but-3-yn-2-ol]
6.51	Cc1nn(-c2ccnc(N)n2)c2cc(C#CC(C)(O)C(=O)N3CC(O)C3)ccc12 (stereo not drawn) [Example T1.1-102, 4-[1-(2-aminopyrimidin-4-yl)-3-methyl-indazol-6-yl]-2-hydroxy-1-(3-hydroxyazetidin-1-yl)-2-methyl-but-3-yn-1-one]
6.50	Cc1nn(-c2ccnc(N)n2)c2cc(C#CC(C)(O)C(=O)N(C)C)ccc12 (stereo not drawn) [Example T1.1-103, 4-[1-(2-aminopyrimidin-4-yl)-3-methyl-indazol-6-yl]-2-hydroxy-N,N,2-trimethyl-but-3-ynamide]
6.47	Cc1cc(C(C)(O)C#Cc2ccc3nc(C(=O)N4CCCC4)n(-c4ccnc(N)n4)c3c2)no1 (stereo not drawn) [Example T1.1-104, [1-(2-aminopyrimidin-4-yl)-6-[3-hydroxy-3-(5-methylisoxazol-3-yl)but-1-ynyl]benzimidazol-2-yl]-pyrrolidin-1-yl-methanone]
9.52	Cc1nc([C@](C)(O)C#Cc2ccc3nc(OCCF)n(-c4ccnc(N)n4)c3c2)no1 [Example T1.1-122, (2R)-4-[3-(2-aminopyrimidin-4-yl)-2-(2-fluoroethoxy)benzimidazol-5-yl]-2-(5-methyl-1,2,4-oxadiazol-3-yl)but-3-yn-2-ol]
9.00	Cc1nn(-c2ccnc(N)n2)c2cc(C#CC(C)(O)c3nccs3)ccc12 (stereo not drawn) [Example T1.1-125, 4-[1-(2-aminopyrimidin-4-yl)-3-methyl-indazol-6-yl]-2-thiazol-2-yl-but-3-yn-2-ol]
8.05	COCCNc1nc2ccc(C#CC(C)(O)c3nc(C)cs3)cc2n1-c1ccnc(N)n1 (stereo not drawn) [Example T1.1-131, 4-[3-(2-aminopyrimidin-4-yl)-2-(2-methoxyethylamino)benzimidazol-5-yl]-2-(4-methylthiazol-2-yl)but-3-yn-2-ol]
9.40	CC(O)(C#Cc1ccc2nc(OCCO)n(-c3ccnc(N)n3)c2c1)c1ccc(Cl)cn1 (stereo not drawn) [Example T1.1-133, 4-[3-(2-aminopyrimidin-4-yl)-2-(2-hydroxyethoxy)benzimidazol-5-yl]-2-(5-chloro-2-pyridyl)but-3-yn-2-ol]
8.70	Cc1nn(-c2ccnc(N)n2)c2cc(C#CC3(O)CCCN(C)C3=O)ccc12 (stereo not drawn) [Example T1.1-136, 3-[2-[1-(2-aminopyrimidin-4-yl)-3-methyl-indazol-6-yl]ethynyl]-3-hydroxy-1-methyl-piperidin-2-one]
8.15	Cc1nnc(C(C)(O)C#Cc2ccc3c(C(=O)N4CCOCC4)nn(-c4ccnc(N)n4)c3c2)o1 (stereo not drawn) [Example T1.1-137, [1-(2-aminopyrimidin-4-yl)-6-[3-hydroxy-3-(5-methyl-1,3,4-oxadiazol-2-yl)but-1-ynyl]indazol-3-yl]-morpholino-methanone]
9.70	COCCN(C)C(=O)c1nn(-c2ccnc(N)n2)c2cc(C#CC(C)(O)c3ncccn3)ccc12 (stereo not drawn) [Example T1.1-138, 1-(2-aminopyrimidin-4-yl)-6-(3-hydroxy-3-pyrimidin-2-yl-but-1-ynyl)-N-(2-methoxyethyl)-N-methyl-indazole-3-carboxamide]
7.70	CC(O)(C#Cc1ccc2c(C(=O)N3CC(F)(F)C3)nn(-c3ccnc(N)n3)c2c1)c1ncccn1 (stereo not drawn) [Example T1.1-139, [1-(2-aminopyrimidin-4-yl)-6-(3-hydroxy-3-pyrimidin-2-yl-but-1-ynyl)indazol-3-yl]-(3,3-difluoroazetidin-1-yl)methanone]
